{"source": "patent US20240075017A1", "about": "(priority 2021, published 2024)", "test_system": "SARS-CoV-2 (B.1.351, beta variant)", "set-up": "species or system C57BL/6 mice", "details": "mouse, in vivo"}
{"smiles": "Nc1nccc2c1ncn2[C@@H]1C=C(CO)[C@@H](O)[C@H]1O", "note": "[DZNep, 3-deazaneplanocin A]", "values": [{"measurement": "abundance of viral transcripts N, M and E in lung RNA by RT-qPCR", "value": "significant DZNep-dependent reduction in abundance of viral transcripts"}, {"measurement": "lung infectious viral load (titration of lung homogenate supernatant on Vero E6 cells)", "value": "significant reduction of the viral load in the lungs"}]}
